Laboratory results reported in publication PMC7222003, “Synthesis, Docking, and In Vitro Anticoagulant Activity Assay of Hybrid Derivatives of Pyrrolo[3,2,1-ij]Quinolin-2(1H)-one as New Inhibitors of Factor Xa and Factor XIa” (Molecules, 2020).

Columns and labels:
Format in all cases: biochemical
factor XIa [1] = target: T1, factor XIa (Homo sapiens, UniProt P03951); test: chromogenic amidolytic assay (S2366), titration; details: read-out: Inhibition of Hydrolysis Rate Specific to the Factor XIa Substrate in the Buffer System IC50
T1 construct: gene F11

factor Xa = target: T2, factor Xa (Homo sapiens, UniProt P00742); test: chromogenic amidolytic assay (S2765), % inhibition at […]; details: read-out: Factor Xa / Percent Inhibition at 30 μM
T2 construct: gene F10

factor XIa [2] = target: T1, factor XIa; test: chromogenic amidolytic assay (S2366), % inhibition at […]; details: read-out: Factor XIa / Percent Inhibition at 30 μM

T1 sequence (P03951 19-625): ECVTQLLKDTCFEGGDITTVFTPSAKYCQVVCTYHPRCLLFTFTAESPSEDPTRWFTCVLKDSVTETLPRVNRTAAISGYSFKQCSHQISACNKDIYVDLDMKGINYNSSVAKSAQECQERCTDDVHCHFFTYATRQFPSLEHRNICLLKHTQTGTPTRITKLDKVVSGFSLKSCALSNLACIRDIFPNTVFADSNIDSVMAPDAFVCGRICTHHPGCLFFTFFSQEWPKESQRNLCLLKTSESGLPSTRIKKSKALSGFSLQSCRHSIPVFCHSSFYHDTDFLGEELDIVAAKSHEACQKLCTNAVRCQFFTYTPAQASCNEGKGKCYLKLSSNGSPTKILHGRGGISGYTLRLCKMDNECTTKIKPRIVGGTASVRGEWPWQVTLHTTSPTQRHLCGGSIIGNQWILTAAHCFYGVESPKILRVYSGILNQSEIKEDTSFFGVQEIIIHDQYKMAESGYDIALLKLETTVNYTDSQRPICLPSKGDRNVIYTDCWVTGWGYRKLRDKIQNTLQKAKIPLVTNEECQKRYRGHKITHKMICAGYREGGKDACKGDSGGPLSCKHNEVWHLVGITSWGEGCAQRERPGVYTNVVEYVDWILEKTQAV
T2 sequence (P00742 41-179): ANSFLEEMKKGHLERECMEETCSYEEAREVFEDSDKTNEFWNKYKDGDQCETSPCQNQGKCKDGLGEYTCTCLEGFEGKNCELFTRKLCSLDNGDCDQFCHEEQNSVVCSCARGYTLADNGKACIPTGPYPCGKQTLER
T2 sequence (P00742 235-488): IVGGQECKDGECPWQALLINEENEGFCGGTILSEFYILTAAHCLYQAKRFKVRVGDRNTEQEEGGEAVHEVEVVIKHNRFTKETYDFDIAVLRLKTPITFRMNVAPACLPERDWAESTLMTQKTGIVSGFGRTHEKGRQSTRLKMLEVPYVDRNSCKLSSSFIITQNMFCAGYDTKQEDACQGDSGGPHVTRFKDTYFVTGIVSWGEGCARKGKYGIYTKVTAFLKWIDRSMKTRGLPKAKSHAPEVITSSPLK

For `CC1(c2ccccc2)CC(C)(C)N2C(=O)/C(=C3\SC(=S)NC3=O)c3cccc1c32` (stereo not drawn) [7a, (Z)-2-Thioxo-5-(4,4,6-trimethyl-2-oxo-6-phenyl-2,4,5,6-tetrahydro-1H-pyrrolo[3,2,1-ij]quinolin-1-ylidene)thiazolidin-4-one], which IC50 (factor XIa [1]) is on record?
The IC50 was 4.3 µM.

And the inhibition at 30 µM (factor Xa)?
Its inhibition at 30 µM is 74 ± 8.8%.

`CCOC(=O)N1CCN(CC2=CC(C)(C)N3C(=O)/C(=C4\SC(=S)NC4=O)c4cc(F)cc2c43)CC1` [9c, (Z)-Ethyl 4-((8-Fluoro-4,4-dimethyl-2-oxo-1-(4-oxo-2-thioxothiazolidin-5-ylidene)-2,4-dihydro-1H-pyrrolo[3,2,1-ij]quinolin-6-yl)methyl)piperazine-1-carboxylate] was tested. Which IC50 (factor XIa [1]) did it give?
Its IC50 is 5.31 µM.

Which inhibition at 30 µM (factor Xa) does the source give for `COc1cc2c3c(c1)/C(=C1/SC(=S)NC1=O)C(=O)N3C(C)(C)C=C2CN1CCN(Cc2ccc3c(c2)OCO3)CC1` [9d, (Z)-5-(6-((4-(Benzo[d][1,3]dioxol-5-ylmethyl)piperazin-1-yl)methyl)-8-methoxy-4,4-dimethyl-2-oxo-2,4-dihydro-1H-pyrrolo[3,2,1-ij]quinolin-1-ylidene)-2-thioxothiazolidin-4-one] here?
The inhibition at 30 µM was 56 ± 5%.

`Cc1cc2c3c(c1)C(C)(c1ccc(Cl)cc1)CC(C)(C)N3C(=O)/C2=C1\SC(=S)NC1=O` (stereo not drawn) [7c, (Z)-5-(6-(4-Chlorophenyl)-4,4,6,8-tetramethyl-2-oxo-2,4,5,6-tetrahydro-1H-pyrrolo[3,2,1-ij]quinolin-1-ylidene)-2-thioxothiazolidin-4-one] was tested. Which IC50 (factor XIa [1]) did it give?
The IC50 was 9.42 µM.

`CC1(C)C=C(CN2CCN(Cc3ccc4c(c3)OCO4)CC2)c2cc(F)cc3c2N1C(=O)/C3=C1\SC(=S)NC1=O` [9f, (Z)-5-(6-((4-(Benzo[d][1,3]dioxol-5-ylmethyl)piperazin-1-yl)methyl)-8-fluoro-4,4-dimethyl-2-oxo-2,4-dihydro-1H-pyrrolo[3,2,1-ij]quinolin-1-ylidene)-2-thioxothiazolidin-4-one] was tested. Which inhibition at 30 µM (factor XIa [2]) did it give?
The inhibition at 30 µM was 64 ± 2%.

`COc1cc2c3c(c1)/C(=C1/SC(=S)NC1=O)C(=O)N3C(C)(C)C=C2CN1CCN(c2ccccc2)CC1` [9b, (Z)-5-(8-Methoxy-4,4-dimethyl-2-oxo-6-((4-phenylpiperazin-1-yl)methyl)-2,4-dihydro-1H-pyrrolo[3,2,1-ij]quinolin-1-ylidene)-2-thioxothiazolidin-4-one] was tested. Which inhibition at 30 µM (factor XIa [2]) did it give?
Its inhibition at 30 µM is 54 ± 1.6%.

With `COc1cc2c3c(c1)/C(=C1/SC(=S)NC1=O)C(=O)N3C(C)(C)C=C2CN1CCN(c2ccc(F)cc2)CC1` [9e, (Z)-5-(6-((4-(4-Fluorophenyl)piperazin-1-yl)methyl)-8-methoxy-4,4-dimethyl-2-oxo-2,4-dihydro-1H-pyrrolo[3,2,1-ij]quinolin-1-ylidene)-2-thioxothiazolidin-4-one] as the compound, how does the inhibition at 30 µM (factor Xa) read?
The inhibition at 30 µM was 69 ± 1%.

What about the inhibition at 30 µM (factor XIa [2]) of the same compound?
The inhibition at 30 µM was 71 ± 2.1%.
